Patent US20170008888A1 (KYORIN PHARMACEUTICAL CO., LTD., priority 2014, published 2017)

Tested on: DNFB-induced ear inflammation mouse model
Assay: DNFB-induced ear inflammation mouse model: cytokine concentrations in ear tissue
Format: in vivo, mouse (Balb/c)
Experimental: In vivo T-cell mediated immune response was examined in a mouse model of CHS using the hapten dinitrofluorobenzene (DNFB) as the induction agent. […] On Days 0 and 1 (sensitization), 20 μL of 0.5% v/v DNFB in acetone:olive oil (4:1) was applied to each hindpaw of 8 week old male mice (Balb/c, Charles River Laboratories; 10 mice per group unless otherwise noted). On Day 5 (elicitation) 10 μL of 0.2% v/v DNFB in acetone: olive oil (4:1) was applied to the dorsal surface of the right ear of each animal; 10 μL of acetone: olive oil (4:1) was applied to the dorsal surface of the left ear as control. Treatments were administered by group as indicated in the table below; on days when DNFB was used, the QD and the morning dose of BID as appropriate were administered 30 minutes-1 hr. prior to DNFB application. […] Approximately 24 hours after elicitation (Day 6), a 7 mm tissue punch from the central portion of both ears was collected and wet weights measured. The primary functional assessment was the difference in wet weights of the right (DNFB) vs. left (vehicle) ears compared to the vehicle treatment (Vehicle1-S) as an indicator of inflammation (Table 17). Ear tissue punches were flash frozen, stored at −70° C. and analyzed for cytokines (see below).
Cytokine concentrations after DNFB induction and treatment were analyzed in the weighed and flash frozen tissues of the right (DNFB) and left (control) 7 mm ear punches. The ear tissues were stored at −70° C. until prepared for analysis as follows. Left or right ear tissues from the same treatment group were pooled and crushed with mortar and pestle under liquid nitrogen. Tissue representing 7-8 ear punches by weight was homogenized in Buffer A (50 mM HEPES pH 7.4, 100 mM NaCl) containing 1 tablet EDTA-free Protease Inhibitor (Thermo Fisher Scientific, Rockford, Ill.) per 10 mL, 1× Phosphatase Inhibitor Cocktail II (AG Scientific, San Diego, Calif.), and 1 mM PMSF (Sigma, St. Louis, Mo.). Homogenization was performed in Lysing Matrix D tubes (MP Biomedicals, Solon, Ohio), using the FastPrep-24 instrument (MP Biomedicals) at a speed setting of 6 for 4 cycles of 30 seconds, with cooling on ice in between cycles. The tubes were then centrifuged at 1,000×g for 10 min at 4° C. Supernatant was collected and briefly sonicated using the Microson probe sonicator at setting 3 (Misonix, Farmingdale, N.Y.) before centrifuging again at 10,000×g for 10 min at 4° C. The supernatant was ultracentrifuged at 100,000×g for 1 h at 4° C. in the Optima Max-E (Beckman Coulter, Indianapolis, Ind.) to separate soluble and membrane protein fractions. The soluble (supernatant) fraction was collected and protein concentrations determined using the Dc protein kit (Bio-Rad, Hercules, Calif.). Soluble ear proteins were analyzed in triplicate for cytokine response at a final protein concentration of 4 mg/ml using the Bio-Plex Pro Mouse Cytokine 23-Plex panel (Bio-Rad) as per manufacturer's protocols. Magnetic beads were read on the Bio-Plex MAGPIX multiplex reader instrument using the accompanying xPONENT 4.2 acquisition software (Bio-Rad Laboratories, Hercules, Calif.). Data were analyzed via the Bio-Plex Manager software v6.1 (Bio-Rad Laboratories). Response was calculated as a percentage of the cytokine concentrations measured in the right (DNFB) ears of vehicle 1 dosed (S regimen, i.e. dosed Day 0-5) mice (Table 18).

## CCOc1cc(C(=O)N2CCC(N3CCCC3)CC2)ccc1Nc1cc2c(cn1)N(C)C(=O)c1ccccc1N2C [Compound 46, 3-(2-Ethoxy-4-(4-(pyrrolidin-1-yl)piperidine-1-carbonyl)phenylamino)-5,11-dimethyl-5H-benzo[e]pyrido[3,4-b][1,4]diazepin-10(11H)-one]
25 mg/kg, regimen E
  G-CSF: Mean % Cytokine Concentration in DNFB Treated Right Ears versus Vehicle 1-Dosed (S) Mice: 58%
  GM-CSF: Mean % Cytokine Concentration in DNFB Treated Right Ears versus Vehicle 1-Dosed (S) Mice: 29%
  IFN-γ: Mean % Cytokine Concentration in DNFB Treated Right Ears versus Vehicle 1-Dosed (S) Mice: 51%
  IL-1α: Mean % Cytokine Concentration in DNFB Treated Right Ears versus Vehicle 1-Dosed (S) Mice: 128%
  IL-1β: Mean % Cytokine Concentration in DNFB Treated Right Ears versus Vehicle 1-Dosed (S) Mice: 57%
  IL-3: Mean % Cytokine Concentration in DNFB Treated Right Ears versus Vehicle 1-Dosed (S) Mice: 75%
  IL-5: Mean % Cytokine Concentration in DNFB Treated Right Ears versus Vehicle 1-Dosed (S) Mice: 63%
  IL-6: Mean % Cytokine Concentration in DNFB Treated Right Ears versus Vehicle 1-Dosed (S) Mice: 53%
  IL-12 (p40): Mean % Cytokine Concentration in DNFB Treated Right Ears versus Vehicle 1-Dosed (S) Mice: 81%
  IL-13: Mean % Cytokine Concentration in DNFB Treated Right Ears versus Vehicle 1-Dosed (S) Mice: 79%
  IL-17A: Mean % Cytokine Concentration in DNFB Treated Right Ears versus Vehicle 1-Dosed (S) Mice: 53%
  KC: Mean % Cytokine Concentration in DNFB Treated Right Ears versus Vehicle 1-Dosed (S) Mice: 30%
  MCP-1: Mean % Cytokine Concentration in DNFB Treated Right Ears versus Vehicle 1-Dosed (S) Mice: 37%
  MIP-1α: Mean % Cytokine Concentration in DNFB Treated Right Ears versus Vehicle 1-Dosed (S) Mice: 62%
  MIP-1β: Mean % Cytokine Concentration in DNFB Treated Right Ears versus Vehicle 1-Dosed (S) Mice: 44%
  RANTES: Mean % Cytokine Concentration in DNFB Treated Right Ears versus Vehicle 1-Dosed (S) Mice: 55%
  TNF-α: Mean % Cytokine Concentration in DNFB Treated Right Ears versus Vehicle 1-Dosed (S) Mice: 67%
60 mg/kg, regimen E
  G-CSF: Mean % Cytokine Concentration in DNFB Treated Right Ears versus Vehicle 1-Dosed (S) Mice: 36%
  GM-CSF: Mean % Cytokine Concentration in DNFB Treated Right Ears versus Vehicle 1-Dosed (S) Mice: 0%
  IFN-γ: Mean % Cytokine Concentration in DNFB Treated Right Ears versus Vehicle 1-Dosed (S) Mice: 25%
  IL-1α: Mean % Cytokine Concentration in DNFB Treated Right Ears versus Vehicle 1-Dosed (S) Mice: 120%
  IL-1β: Mean % Cytokine Concentration in DNFB Treated Right Ears versus Vehicle 1-Dosed (S) Mice: 32%
  IL-3: Mean % Cytokine Concentration in DNFB Treated Right Ears versus Vehicle 1-Dosed (S) Mice: 53%
  IL-5: Mean % Cytokine Concentration in DNFB Treated Right Ears versus Vehicle 1-Dosed (S) Mice: 23%
  IL-6: Mean % Cytokine Concentration in DNFB Treated Right Ears versus Vehicle 1-Dosed (S) Mice: 31%
  IL-12 (p40): Mean % Cytokine Concentration in DNFB Treated Right Ears versus Vehicle 1-Dosed (S) Mice: 64%
  IL-13: Mean % Cytokine Concentration in DNFB Treated Right Ears versus Vehicle 1-Dosed (S) Mice: 61%
  IL-17A: Mean % Cytokine Concentration in DNFB Treated Right Ears versus Vehicle 1-Dosed (S) Mice: 42%
  KC: Mean % Cytokine Concentration in DNFB Treated Right Ears versus Vehicle 1-Dosed (S) Mice: 21%
  MCP-1: Mean % Cytokine Concentration in DNFB Treated Right Ears versus Vehicle 1-Dosed (S) Mice: 31%
  MIP-1α: Mean % Cytokine Concentration in DNFB Treated Right Ears versus Vehicle 1-Dosed (S) Mice: 42%
  MIP-1β: Mean % Cytokine Concentration in DNFB Treated Right Ears versus Vehicle 1-Dosed (S) Mice: 31%
  RANTES: Mean % Cytokine Concentration in DNFB Treated Right Ears versus Vehicle 1-Dosed (S) Mice: 37%
  TNF-α: Mean % Cytokine Concentration in DNFB Treated Right Ears versus Vehicle 1-Dosed (S) Mice: 48%
60 mg/kg, regimen S
  G-CSF: Mean % Cytokine Concentration in DNFB Treated Right Ears versus Vehicle 1-Dosed (S) Mice: 27%
  GM-CSF: Mean % Cytokine Concentration in DNFB Treated Right Ears versus Vehicle 1-Dosed (S) Mice: 0%
  IFN-γ: Mean % Cytokine Concentration in DNFB Treated Right Ears versus Vehicle 1-Dosed (S) Mice: 22%
  IL-1α: Mean % Cytokine Concentration in DNFB Treated Right Ears versus Vehicle 1-Dosed (S) Mice: 88%
  IL-1β: Mean % Cytokine Concentration in DNFB Treated Right Ears versus Vehicle 1-Dosed (S) Mice: 23%
  IL-3: Mean % Cytokine Concentration in DNFB Treated Right Ears versus Vehicle 1-Dosed (S) Mice: 45%
  IL-5: Mean % Cytokine Concentration in DNFB Treated Right Ears versus Vehicle 1-Dosed (S) Mice: 5%
  IL-6: Mean % Cytokine Concentration in DNFB Treated Right Ears versus Vehicle 1-Dosed (S) Mice: 20%
  IL-12 (p40): Mean % Cytokine Concentration in DNFB Treated Right Ears versus Vehicle 1-Dosed (S) Mice: 49%
  IL-13: Mean % Cytokine Concentration in DNFB Treated Right Ears versus Vehicle 1-Dosed (S) Mice: 47%
  IL-17A: Mean % Cytokine Concentration in DNFB Treated Right Ears versus Vehicle 1-Dosed (S) Mice: 38%
  KC: Mean % Cytokine Concentration in DNFB Treated Right Ears versus Vehicle 1-Dosed (S) Mice: 19%
  MCP-1: Mean % Cytokine Concentration in DNFB Treated Right Ears versus Vehicle 1-Dosed (S) Mice: 27%
  MIP-1α: Mean % Cytokine Concentration in DNFB Treated Right Ears versus Vehicle 1-Dosed (S) Mice: 29%
  MIP-1β: Mean % Cytokine Concentration in DNFB Treated Right Ears versus Vehicle 1-Dosed (S) Mice: 24%
  RANTES: Mean % Cytokine Concentration in DNFB Treated Right Ears versus Vehicle 1-Dosed (S) Mice: 27%
  TNF-α: Mean % Cytokine Concentration in DNFB Treated Right Ears versus Vehicle 1-Dosed (S) Mice: 39%
